The text below walks through data of article PMC6009935 (Journal of Enzyme Inhibition and Medicinal Chemistry, 2017).

Assay [1] concerns thermal nociception. Briefly: Hot plate test after i.c.v. injection. The class given is in vivo, mice. The note with it: i.c.v. 1, 5 and 10 µg/mouse; 15-90 min. As to the method: (§1) In vivo nociception tests
(§2) Male CD-1 mice (Harlan, Italy) weighting 25-30 g were used for all experiments. Mice were housed for at least 1 week before the experimental sessions in colony cages (7 mice in each cage) under standard light (from 7.00 a.m. to 7.00 p.m.), temperature (21±1°C), relative humidity (60±10%) with food and water available ad libitum. The research protocol was approved by the Service for Biotechnology and Animal Welfare of the Istituto Superiore di Sanità and authorized by the Italian Ministry of Health, according to Legislative Decree 26/14, which implemented the European Directive 2010/63/UE on laboratory animal protection in Italy. […]
(§3) In the case of hot plate test, the thermal nociception was assessed with a commercially available apparatus consisting in a metal plate 25x25 cm (Ugo Basile, Italy) heated to a constant temperature of 55±0.1°C, on which a plastic cylinder (20 cm diameter, 18 cm high) was placed. The time of latency (s) was recorded from the moment the animal was inserted inside the cylinder up to when it licked its paws or jerked them off the hot plate; jumped off the hot plate; the latency exceeded the cut-off time of 60 s. The baseline was calculated as mean of three readings recorded before testing at intervals of 15-30 min. The time course of latency was then determined at 15, 30, 45, 60, and 90 min after treatment. […]
On the technique in general: In hot-plate and tail-flick tests a longer latency is read as antinociception.

For assay [2], the system named is thermal nociception. The experiment in a line: Tail flick test after i.c.v. injection. The class given is in vivo, mice. To be noted: i.c.v. 1, 5 and 10 µg/mouse; 15-90 min. As to the method:
as §1, §2, §3

In the case of `Cc1c(C(=O)NC2CCN(C(=O)[C@H](Cc3ccccc3)NC(=O)CNC(=O)[C@@H](C)NC(=O)[C@@H](N)Cc3ccc(O)cc3)CC2)nn(-c2ccc(Cl)cc2Cl)c1-n1cccc1` [Compound 9], the “behavioral response to thermal nociceptive stimuli, hot plate test” value with thermal nociception [1] is “no difference in treatments”. In addition, in the assay with thermal nociception [2], the “latency of the nociceptive response, tail flick test” value is on record as “absence of effect”.
